Results as given in article PMC2994711, “Homodimerization of the Death-Associated Protein Kinase Catalytic Domain: Development of a New Small Molecule Fluorescent Reporter” (PLoS ONE, 2010).
Where two headings read alike, the source gives them in different places.

Tests used:
Type in all cases: binding
[1] = target: T1, DAPK catalytic domain (DAPKwt, residues 1–285) (Homo sapiens, UniProt P53355); assay: Fluorescence polarization titration of the fluorescent probe with DAPKwt
T1 construct: encoding the DAPK catalytic domain (DAPKwt, open reading frame residues 1–285); Strep-tag (pASK-IBA3 vector; purified on streptactin resin) (C); made in house; host or cells: Escherichia coli DH5α
Method: (§1) Fluorescence polarization assays were performed using a Victor 3 apparatus (Perkin-Elmer Waltham, MA). The Lissamine Rhodamine B peptides based library (UMR 7200 CNRS, Strasbourg, France, Patent WO/2006/003330 [14]) was diluted in the assay buffer (50 mM HEPES, 150 mM KCl, 1 mM MgCl2, pH 7.5) to a working concentration of 0.2 µM. 15 µl of these dilutions were transferred to each well of the assay plate (Corning Costar 96-well black polystyrene plates, Model 3686, Corning, Acton, MA). All pipetting in HTS was performed on a Biomek® 2000 (Beckman Coulter, Fullerton, CA). Fluorescent polarization degrees (mFP) were measured at an excitation and emission wavelength of 530 and 610 nm, respectively. 15 µl of the assay buffer with DAPK, at a concentration of 4 µM, were added to each well. For each plate, background correction was performed with blank control wells containing no compounds.
(§2) All titration measurements were performed on a FlexStation 3 (Molecular Devices Union City, CA). The other experimental conditions were described in section “HTS of fluorescent peptides based library”. A twofold dilution cascade of the protein between 200 µM and 0.8 µM was prepared and 10 µl of these solutions were dispatched in 96-well assay plates. 10 µl of the probe solution (0.2 µM of CHPO 187-3-H11-para in assay buffer) were added to the wells and fluorescent polarization was recorded as specified before. Subsequently, 1 µl of concentrated ATP, ADP or substrate peptide (Tocris Bristol, UK) in assay buffer with 0.1 µM of the fluorescent probe was added to the wells, in order to subsequently obtain the following final concentrations of ATP, ADP or substrate peptide: 0.4, 0.8, 1.6, 3.2, 6.3, 12.5, 25, 50, and 1000 µM (the highest concentration was not performed for the peptide).
(§3) Titrations followed the same protocol as described under “ATP, ADP and substrate peptide titrations”, but under buffer conditions analogous to the ones listed under “nano-ESI-MS for the study of non-covalent complexes”. For investigations of the monomeric and the dimeric forms, NH4Ac concentrations were kept constant at 250 mM and 5 mM, respectively. To induce gradual monomerization of DAPK catalytic core, the NH4Ac concentration was stepwise augmented (5, 10, 25, 50, 100 and 250 mM) by the addition of a concentrated NH4Ac stock solution (1 M).

[2] = target: T2, mutant protein DAPKdel (ΔS52–S57) (Homo sapiens, UniProt P53355, DEL52-57); assay: Fluorescence polarization titration of the fluorescent probe with DAPKdel
T2 construct: encoding the DAPK catalytic domain (DAPKwt, open reading frame residues 1–285) or the mutant protein DAPKdel (ΔS52–S57); Strep-tag (pASK-IBA3 vector; purified on streptactin resin) (C); made in house; host or cells: Escherichia coli DH5α
Method: as §1, §2, §3

[3] = target: T3, DAPK catalytic domain (DAPKwt) (Homo sapiens, UniProt P53355); assay: Fluorescence polarization titration of fluorophore labeled ATP with DAPKwt; details: pH 8.8, labeled ATP 0.1 µM
T3 construct: encoding the DAPK catalytic domain (DAPKwt, open reading frame residues 1–285); Strep-tag (pASK-IBA3 vector; purified on streptactin resin) (C); made in house; host or cells: Escherichia coli DH5α
Method: as §3
To determine the Kd values of γ-[6-Aminohexyl]-ATP-Atto495 (Jena Bioscience, Jena, Germany) its concentration was set to 0.1 µM, while the rest of the conditions were kept identical to the ones described above. Fluorescence polarization was recorded at an excitation and emission wavelength of 493 nm and 520 nm respectively.

T2 sequence (P53355 with tags, fused parts or gaps DEL52-57): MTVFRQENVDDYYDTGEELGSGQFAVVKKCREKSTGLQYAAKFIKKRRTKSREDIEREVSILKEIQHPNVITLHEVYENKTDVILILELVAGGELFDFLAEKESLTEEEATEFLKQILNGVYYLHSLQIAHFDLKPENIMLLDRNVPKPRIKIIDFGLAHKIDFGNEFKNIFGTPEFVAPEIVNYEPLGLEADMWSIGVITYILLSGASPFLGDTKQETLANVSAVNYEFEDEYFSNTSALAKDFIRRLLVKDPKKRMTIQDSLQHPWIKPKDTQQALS
T1 sequence (P53355 1-285): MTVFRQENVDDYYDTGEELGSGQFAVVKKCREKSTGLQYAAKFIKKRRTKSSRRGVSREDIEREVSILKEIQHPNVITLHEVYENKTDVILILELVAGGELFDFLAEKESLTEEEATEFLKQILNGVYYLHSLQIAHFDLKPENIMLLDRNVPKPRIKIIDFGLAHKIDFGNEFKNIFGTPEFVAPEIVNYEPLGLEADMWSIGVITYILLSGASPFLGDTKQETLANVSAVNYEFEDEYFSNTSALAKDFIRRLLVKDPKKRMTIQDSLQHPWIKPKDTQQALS
T3 sequence (P53355 1-285): as above

Kd ([1]; 5 mM NH4Ac, pH 8.8, conditions favoring the dimer, probe 0.1 µM) | Kd ([1]; 50 mM HEPES, 150 mM KCl, 1 mM MgCl2, pH 7.5, absence of ATP or ADP) | Kd ([1]; 250 mM NH4Ac, pH 8.8, conditions favoring the monomer, probe 0.1 µM) | Kd ([1]; HEPES buffer pH 7.5, ATP or ADP to DAPK ratios higher than two (maximal effect)) | Kd ([2]; 5 mM NH4Ac, pH 8.8) | Kd ([2]; 250 mM NH4Ac, pH 8.8) | Kd ([2]; HEPES buffer pH 7.5, absence of ATP or ADP) | Kd ([2]; HEPES buffer pH 7.5, presence of ADP, ratio to DAPKdel higher than two) | Kd ([2]; HEPES buffer pH 7.5, presence of ATP, ratio to DAPKdel higher than two) | Kd ([3]; 5 mM NH4Ac, read-out: Kd of the labeled ATP for the DAPKwt dimer) | Kd ([3]; 250 mM NH4Ac, read-out: Kd of the labeled ATP for the DAPKwt monomer) | Compound
16.5 ± 1.2 µM | 30.9 ± 2.8 µM | 1.5 ± 0.2 µM | 6.4 ± 0.54 µM | 3.4 µM | 5.5 µM | 20 µM | 33 µM | 28 µM |  |  | CCN(CC)c1ccc2c(-c3ccc(S(=O)(=O)NCCC(=O)N[C@@H](CCCNC(=N)N)C(=O)N[C@@H](Cc4ccc5ccccc5c4)C(=O)N[C@@H](CCCN)C(N)=O)cc3S(=O)(=O)[O-])c3ccc(=[N+](CC)CC)cc-3oc2c1 [CHPO 187-3-H11-para]
 |  |  |  |  |  |  |  |  | 3.98 ± 0.22 µM | 0.29 ± 0.011 µM | γ-[6-Aminohexyl]-ATP-Atto495
